We go through 2 compounds from ChEMBL document CHEMBL1149186, “Triacylglycerols based on 2-(N-tert-butoxycarbonylamino)oleic acid are potent inhibitors of pancreatic lipase” (J Med Chem, 2004).

Experiment [1] has as its target T1, Gastric triacylglycerol lipase (Homo sapiens) (UniProt P07098).
T1 sequence (whole entry): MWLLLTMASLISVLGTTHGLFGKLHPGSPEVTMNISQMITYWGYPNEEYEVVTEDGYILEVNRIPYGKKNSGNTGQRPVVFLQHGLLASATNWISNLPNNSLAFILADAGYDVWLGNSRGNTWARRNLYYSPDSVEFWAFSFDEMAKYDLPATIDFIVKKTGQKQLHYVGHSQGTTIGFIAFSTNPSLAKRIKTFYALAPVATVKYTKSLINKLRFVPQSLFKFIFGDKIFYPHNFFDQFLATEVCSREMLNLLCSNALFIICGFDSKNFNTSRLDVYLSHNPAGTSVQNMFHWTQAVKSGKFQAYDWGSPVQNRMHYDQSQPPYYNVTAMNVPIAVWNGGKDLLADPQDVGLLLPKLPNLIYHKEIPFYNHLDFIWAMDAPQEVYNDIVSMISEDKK
Description: Inhibition constant (molar fraction of compound) on human gastric lipase (HGL) at a constant surface pressure of 27 […]. As to conditions: Stomach.

In experiment [2] the target is T2, Pancreatic triacylglycerol lipase (Homo sapiens) (UniProt P16233).
T2 sequence (whole entry): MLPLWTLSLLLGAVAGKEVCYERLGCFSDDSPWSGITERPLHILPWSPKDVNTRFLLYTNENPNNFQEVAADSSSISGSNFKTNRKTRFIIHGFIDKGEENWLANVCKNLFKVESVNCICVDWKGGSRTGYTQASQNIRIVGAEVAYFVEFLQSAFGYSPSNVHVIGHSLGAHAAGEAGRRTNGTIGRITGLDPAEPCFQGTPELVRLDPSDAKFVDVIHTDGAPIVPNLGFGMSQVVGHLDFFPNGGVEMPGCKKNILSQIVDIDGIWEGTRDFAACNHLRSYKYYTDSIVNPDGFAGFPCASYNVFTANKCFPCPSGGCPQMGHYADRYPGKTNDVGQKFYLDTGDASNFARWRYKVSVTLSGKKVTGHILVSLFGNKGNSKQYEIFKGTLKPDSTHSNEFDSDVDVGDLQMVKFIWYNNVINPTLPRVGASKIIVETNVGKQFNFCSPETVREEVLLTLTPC
Description: Inhibition constant (molar fraction of compound) on human pancreatic lipase (HPL) at a constant surface pressure of 25 […].

Experiment [3] addresses T1, Gastric triacylglycerol lipase (Homo sapiens). Description: Inhibition constant (molar fraction of compound) on human gastric lipase (HGL) at a constant surface pressure of 17 […]. The conditions noted are these: Stomach.
The target in experiment [4] is T2, Pancreatic triacylglycerol lipase (Homo sapiens). Description: Inhibition constant (molar fraction of compound) on human pancreatic lipase (HPL) at a constant surface pressure of 14 […].

Turning to `CCCCCCCC/C=C\CCCCCC[C@H](NC(=O)OC(C)(C)C)C(=O)OCC(C)(COC(=O)[C@H](CCCCCC/C=C\CCCCCCCC)NC(=O)OC(C)(C)C)OC(=O)[C@H](CCCCCC/C=C\CCCCCCCC)NC(=O)OC(C)(C)C`, the values for the Alpha 50 (molar fraction) in experiment [1] and in experiment [2] were 0.104 and 0.002, respectively.
For the compound `CCCCCCCC/C=C\CCCCCC[C@H](NC(=O)OC(C)(C)C)C(=O)OCC(COC(=O)[C@H](CCCCCC/C=C\CCCCCCCC)NC(=O)OC(C)(C)C)OC(=O)[C@H](CCCCCC/C=C\CCCCCCCC)NC(=O)OC(C)(C)C`, the Alpha 50 (molar fraction) is 0.15 in experiment [3], 0.057 in experiment [1], 0.003 in experiment [2] and 0.009 in experiment [4].
